Experiment [1] has as its system HCT-116 cells. Nature of the experiment: Cell growth, CellTiter-Glo Luminescent Cell Viability Assay, HCT-116. The format is cell-based. The note with it: Homo sapiens, HCT116 cells, 72 h incubation, read-out: IC50 antiproliferative assay HCT116. The text has this:
(§1) CellTiter-Glo® Luminescent Cell Viability Assay (Promega) is a homogeneous method of determining the number of viable cells in culture based on quantitation of the present ATP, which indicates the presence of metabolically active cells. The homogeneous assay procedure involves addition of a single reagent (CellTiter-Glo® Reagent) directly to the cells, which leads to cell lysis and generation of a luminescent signal proportional to the amount of the ATP and the number of cells present in culture. The assay relies on the properties of a proprietary thermostable luciferase (Ultra-Glo® recombinant luciferase), which generates a luminescent signal.
(§2) K562, A549 and HCT-116 cells, in exponential growth, were incubated for 72 h with different concentrations of the inhibitors. After 72 h, a volume of CellTiter-Glo® Reagent equal to the volume of cell culture medium was added. The content was mixed for 2 min to induce cell lysis. The luminescence was recorded after further 10 min at RT in order to obtain a stabilized luminescent signal.
(§3) The IC50 was calculated using GraphPad Software.
(§4) IC50 results were allocated to one of 3 ranges as follows: Range A: IC50≦1.0 μM; Range B: from 1.0 to 3.0 μM; Range C: IC50≧3.0 μM.

For experiment [2], the system named is HDAC (nuclear fraction of Hela cells). Nature of the experiment: Assay of enzyme inhibition of HDAC (BIOMOL Kit). It is filed as biochemical. The note with it: substrate 200 μM, 15 min at RT. As to the method:
2.2 Assay of Enzyme Inhibition of HDAC
The in-vitro activity of HDAC inhibitors was assayed using a BIOMOL Kit, according to the instructions from the manufacturer (Biomolecular Research Laborator). 15 μl of 30× diluted nuclear fraction of Hela cells, was diluted to 50 μl with the assay buffer containing the HDAC inhibitor and the substrate (lysine with acetylated amino group on the side chain) at a concentration of 200 μM. The samples were incubated for 15 min at RT and then exposed to a developer (10 min at RT). In this last step a fluorophore was produced, whose fluorescence was measured using an excitation wavelength of 355 nm and an emission at 460 nm. The IC50 was calculated using GraphPad Software.

Experiment [3] relates to A549 cells. Nature of the experiment: Cell growth, CellTiter-Glo Luminescent Cell Viability Assay, A549. The note with it: Homo sapiens, 72 h incubation, read-out: IC50 antiproliferative assay A549. The format is cell-based.
Excerpt: as §1, §2, §3, §4

The test system of experiment [4] is K562 cells. Put plainly: Cell growth, CellTiter-Glo Luminescent Cell Viability Assay, K562. The format is cell-based. The note with it: Homo sapiens, 72 h incubation, read-out: IC50 antiproliferative assay K562.
Excerpt: as §1, §2, §3, §4
On the technique in general: ATP-based viability assays read luminescence as a measure of living cells.

The text below walks through data of patent publication US9115148B2, “Spirocyclic derivatives as histone deacetylase inhibitors” (DAC S.R.L., priority 2008, dated 2015).

The structures appear in SMILES notation.

What is called IC50 is the concentration needed to halve the response being measured.

Regarding `O=C(/C=C/c1ccc2c(c1)C(=O)CC1(CCN(Cc3cccc(Cl)c3)CC1)O2)NO` [Example 38, (E)-3-{1′-(3-Chloro-benzyl)-4-oxo-spiro[chromane-2,4′-piperidine]-6-yl}-N-hydroxy-acrylamide], the IC50 was 1 to 3 µM in experiment [1], 0.1 to 1 µM in experiment [2], 1 to 3 µM in experiment [3] and at most 1 µM in experiment [4].

Regarding `O=C(/C=C/c1ccc2c(c1)C(=O)CC1(CCN(Cc3ccc(Cl)cc3)CC1)O2)NO` [Example 39, (E)-3-{1′-(4-Chloro-benzyl)-4-oxo-spiro[chromane-2,4′-piperidine]-6-yl}-N-hydroxy-acrylamide], the IC50 in experiment [1] is at most 1 µM; in experiment [2], 0.1 to 1 µM; in experiment [3] it was 1 to 3 µM; in experiment [4], at most 1 µM.

Consider `O=C(/C=C/c1ccc2c(c1)C(=O)CC1(CCN(Cc3ccccn3)CC1)O2)NO` [Example 40, (E)-3-{1′-(Pyridin-2-ylmethyl)-4-oxo-spiro[chromane-2,4′-piperidine]-6-yl}-N-hydroxy-acrylamide], for which the IC50 is at most 1 µM in experiment [1], 0.1 to 1 µM in experiment [2], 1 to 3 µM in experiment [3] and at most 1 µM in experiment [4].

`O=C(/C=C/c1ccc2c(c1)C(=O)CC1(CCN(Cc3cccnc3)CC1)O2)NO` [Example 41, (E)-3-{1′-(Pyridin-3-ylmethyl)-4-oxo-spiro[chromane-2,4′-piperidine]-6-yl}-N-hydroxy-acrylamide]: the IC50 was at most 1 µM in experiment [1], 0.1 to 1 µM in experiment [2], 1 to 3 µM in experiment [3] and 1 to 3 µM in experiment [4].

With `O=C(/C=C/c1ccc2c(c1)C(=O)CC1(CCN(Cc3ccncc3)CC1)O2)NO` [Example 42, (E)-3-{1′-(Pyridin-4-ylmethyl)-4-oxo-spiro[chromane-2,4′-piperidine]-6-yl}-N-hydroxy-acrylamide], the half-maximal inhibitory concentration (IC50) in experiment [1] is at most 1 µM; in experiment [2], 0.1 to 1 µM; in experiment [3] it was 1 to 3 µM; in experiment [4], 1 to 3 µM.

As for `CS(=O)(=O)N1CCC2(CC1)CC(=O)c1cc(/C=C/C(=O)NO)ccc1O2` [Example 43, (E)-3-{1′-Methanesulfonyl-4-oxo-spiro[chromane-2,4′-piperidine]-6-yl}-N-hydroxy-acrylamide], the half-inhibitory concentration (IC50) in experiment [1] was at least 3 µM; in experiment [2] it was 0.1 to 1 µM; in experiment [3] it was at least 3 µM; in experiment [4], at least 3 µM.

`O=C(/C=C/c1ccc2c(c1)C(=O)CC1(CCN(S(=O)(=O)c3ccccc3)CC1)O2)NO` [Example 44, (E)-3-{1′-Phenylsulfonyl-4-oxo-spiro[chromane-2,4′-piperidine]-6-yl}-N-hydroxy-acrylamide]: the IC50 in experiment [1] was 1 to 3 µM; in experiment [2] it was 0.1 to 1 µM; in experiment [3], at least 3 µM; in experiment [4], 1 to 3 µM.

Consider `O=C(/C=C/c1ccc2c(c1)C(=O)CC1(CCN(CCCc3ccccc3)CC1)O2)NO` [Example 45, (E)-3-{1′-(3-Phenyl-propyl)-4-oxo-spiro[chromane-2,4′-piperidine]-6-yl}-N-hydroxy-acrylamide], for which the IC50 in experiment [1] is at most 1 µM; in experiment [2], 0.1 to 1 µM; in experiment [3], 1 to 3 µM; in experiment [4] it was at most 1 µM.

`CCNC(=O)N1CCC2(CC1)CC(=O)c1cc(/C=C/C(=O)NO)ccc1O2` [Example 46, (E)-3-{1′-Ethylcarbamoyl-4-oxo-spiro[chromane-2,4′-piperidine]-6-yl}-N-hydroxy-acrylamide]: the IC50 in experiment [1] was at least 3 µM; in experiment [2], 0.1 to 1 µM; in experiment [3], at least 3 µM; in experiment [4] it was at least 3 µM.

For `O=C(/C=C/c1ccc2c(c1)C(=O)CC1(CCN(C(=O)NCc3ccccc3)CC1)O2)NO` [Example 47, (E)-3-{1′-Benzylcarbamoyl-4-oxo-spiro[chromane-2,4′-piperidine]-6-yl}-N-hydroxy-acrylamide], the IC50 in experiment [1] is at least 3 µM; in experiment [2], 0.1 to 1 µM; in experiment [3] it was at least 3 µM; in experiment [4] it was at least 3 µM.

Take `O=C(/C=C/c1ccc2c(c1)C(=O)CC1(CCN(C(=O)Nc3ccccc3)CC1)O2)NO` [Example 48, (E)-3-{1′-Phenylcarbamoyl-4-oxo-spiro[chromane-2,4′-piperidine]-6-yl}-N-hydroxy-acrylamide]: the concentration for half-maximal inhibition (IC50) in experiment [1] was 1 to 3 µM; in experiment [2], 0.1 to 1 µM; in experiment [3] it was at least 3 µM; in experiment [4], 1 to 3 µM.

For `O=C(/C=C/c1ccc2c(c1)C(=O)CC1(CCN(CCc3c[nH]c4ccccc34)CC1)O2)NO` [Example 49], the IC50 in experiment [1] is at most 1 µM; in experiment [2], below 0.1 µM; in experiment [3], at most 1 µM; in experiment [4], at most 1 µM.

Consider `O=C(/C=C/c1ccc2c(c1)C(=O)CC1(CCN(Cc3c[nH]c4ccccc34)CC1)O2)NO` [Example 50], for which the IC50 was at most 1 µM in experiment [1], below 0.1 µM in experiment [2], at most 1 µM in experiment [3] and at most 1 µM in experiment [4].

Consider `Cc1[nH]c2ccccc2c1CN1CCC2(CC1)CC(=O)c1cc(/C=C/C(=O)NO)ccc1O2` [Example 51, (E)-3-{1′-(2-Methyl-1H-indol-3-ylmethyl)-4-oxo-spiro[chromane-2,4′-piperidine]-6-yl}-N-hydroxy-acrylamide], for which the IC50 in experiment [1] was at most 1 µM; in experiment [2], below 0.1 µM; in experiment [3], at most 1 µM; in experiment [4], at most 1 µM.

With `O=C(/C=C/c1ccc2c(c1)C(=O)CC1(CCN(Cc3ccc(-c4ccccc4)cc3)CC1)O2)NO` [Example 52, (E)-3-{1′-(Biphenyl-4-ylmethyl)-4-oxo-spiro[chromane-2,4′-piperidine]-6-yl}-N-hydroxy-acrylamide], the IC50 in experiment [1] is at most 1 µM; in experiment [2], 0.1 to 1 µM; in experiment [3] it was 1 to 3 µM; in experiment [4] it was at most 1 µM.

Take `O=C(/C=C/c1ccc2c(c1)C(=O)CC1(CCN(Cc3c[nH]c4cc(F)ccc34)CC1)O2)NO` [Example 53, (E)-3-{1′-(6-Fluoro-1H-indol-3-ylmethyl)-4-oxo-spiro[chromane-2,4′-piperidine]-6-yl}-N-hydroxy-acrylamide]: the IC50 in experiment [1] is at most 1 µM; in experiment [2] it was below 0.1 µM; in experiment [3] it was 1 to 3 µM; in experiment [4] it was at most 1 µM.

In the case of `O=C(/C=C/c1ccc2c(c1)C(=O)CC1(CCN(Cc3c[nH]c4ccc(F)cc34)CC1)O2)NO` [Example 54, (E)-3-{1′-(5-Fluoro-1H-indol-3-ylmethyl)-4-oxo-spiro[chromane-2,4′-piperidine]-6-yl}-N-hydroxy-acrylamide], the IC50 was at most 1 µM in experiment [1], below 0.1 µM in experiment [2], at most 1 µM in experiment [3] and at most 1 µM in experiment [4].

As for `O=C(/C=C/c1ccc2c(c1)C(=O)CC1(CCN(CCc3ccccc3)CC1)O2)NO` [Example 55, (E)-3-{1′-(2-Phenyl-ethyl)-4-oxo-spiro[chromane-2,4′-piperidine]-6-yl}-N-hydroxy-acrylamide], the IC50 in experiment [1] was at most 1 µM; in experiment [2], 0.1 to 1 µM; in experiment [3], at most 1 µM; in experiment [4], at most 1 µM.

Take `O=C(/C=C/c1ccc2c(c1)C(=O)CC1(CCN(CCc3ccc(F)cc3)CC1)O2)NO` [Example 56, (E)-3-{1′-[2-(4-Fluoro-phenyl)-ethyl]-4-oxo-spiro[chromane-2,4′-piperidine]-6-yl}-N-hydroxy-acrylamide]: the IC50 in experiment [1] was at most 1 µM; in experiment [2], below 0.1 µM; in experiment [3], at most 1 µM; in experiment [4] it was at most 1 µM.
